Experimental data reported in patent US9409952B2, “Peptide-compound cyclization method” (Chugai Seiyaku Kabushiki Kaisha, priority 2011, dated 2016).
Positions of bridges follow the written chain, without caps; N, C: chain ends. Non-standard residues stand in square brackets, D forms with d. Residues, ends and D or L forms follow the SMILES beside them. *: point of attachment. Bip = N[C@@H](Cc1ccc(-c2ccccc2)cc1)C(=O)O; NMeF = CN[C@@H](Cc1ccccc1)C(=O)O; NMeI = CC[C@H](C)[C@H](NC)C(=O)O; NMeL = CN[C@@H](CC(C)C)C(=O)O; NMeA = CN[C@@H](C)C(=O)O; Piperidide = C1CCN(*)CC1; Sar = CNCC(=O)O; tBu = CC(C)(C)*

Key:
[1] = Serum stability test in mouse serum; type: in vitro ADME; settings: both sexes, pH 7.4, two hours, read-out: Serum stability t1/2 (Mouse)
Experimental: (§1) The obtained compound was metabolically reacted at a concentration of 2 uM with mouse serum (male/female mixed, Valley Biomedical, USA) (adjusted to pH 7.4 with 33.5 mM HEPES buffer) for two hours. Deproteinization treatment with acetonitrile was provided over time, the amount of the remaining unchanged compound was analyzed using LC/MS, and the metabolic half-life (t1/2) was calculated. A microsome solution prepared at 0.5 mg protein/mL from mouse hepatic microsome and small intestinal microsome (male, XENOTECH, USA) using 100 mM phosphate buffer (pH 7.4) was metabolically reacted with the compound at a concentration of 1 uM for 30 minutes in the presence or absence of NADPH. Deproteinization treatment with acetonitrile was provided over time, the amount of the remaining unchanged compound was analyzed using LC/MS, and the hepatic-intrinsic clearance (CLh, int) and the small intestinal-intrinsic clearance (CLg, int) were calculated (Table 7). Such peptides were sufficiently slowly metabolized by hydrolysis with peptidases or the like in mouse sera and microsomes, contrary to peptides composed of natural amino acids having low lipophilicity.

[2] = Metabolic stability in mouse hepatic microsome; type: in vitro ADME; settings: for Hepatic Microsome CLh, int (Mouse) In the absence of NADPH / microsomal CLint at 1 uM: 0.5 mg protein/mL, 1 uM, 30 minutes; for Hepatic Microsome CLh, int (Mouse) In the absence of NADPH: without NADPH; for microsomal CLint at 1 uM: male, mouse, liver microsomes, pH 7.4, with NADPH, read-out: Hepatic Microsome CLh, int (Mouse) In the presence of NADPH
Experimental: as §1
Metabolic stability tests were carried out in the same manner as shown in 2-1.

Structure (SMILES)	half-life at 2 uM [1]	Hepatic Microsome CLh, int (Mouse) In the absence of NADPH [2]	microsomal CLint at 1 uM [2]	Mouse Hepatic Microsome CLh, int ([2]; Table 9, thioether versus sulfoxide)
CC[C@H](C)[C@H]1C(=O)N[C@@H](Cc2ccc(-c3ccccc3)cc2)C(=O)N[C@H](C(=O)N2CCCCC2)CSCC(=O)N(C)[C@@H](CC(C)C)C(=O)N[C@@H]([C@@H](C)O)C(=O)N(C)CC(=O)N(C)[C@@H](CC(C)C)C(=O)N[C@@H](CO)C(=O)N1C [Compound P-104, Ac*-MeLeu-Thr-MeGly-MeLeu-Ser-MeIle-Bip-Cys*-piperidine] ({CH2CO}-[NMeL]T[Sar][NMeL]S[NMeI][Bip]C-Piperidide; thioether N-8)	> 60 h	6.9 ul/min/mg Protein	106 µL/min/mg	–
CC(C)C[C@H]1C(=O)N[C@H](C(=O)N2CCCCC2)CSCC(=O)N(C)[C@@H](Cc2ccccc2)C(=O)N(C)[C@@H](C)C(=O)N[C@@H](Cc2ccccc2)C(=O)N(C)[C@@H](CC(C)C)C(=O)N[C@@H]([C@@H](C)O)C(=O)N(C)CC(=O)N1C [Compound P-105, Ac*-MePhe-MeAla-Phe-MeLeu-Thr-MeGly-MeLeu-Cys*-piperidine] ({CH2CO}-[NMeF][NMeA]F[NMeL]T[Sar][NMeL]C-Piperidide; thioether N-8)	> 60 h	5.1 ul/min/mg Protein	278 µL/min/mg	–
CC(C)C[C@H]1C(=O)N[C@@H](COC(C)(C)C)C(=O)N[C@H](C(=O)N2CCCCC2)CSCC(=O)N(C)[C@@H](Cc2ccccc2)C(=O)N(C)[C@@H](C)C(=O)N(C)[C@@H](Cc2ccccc2)C(=O)N(C)[C@@H](CC(C)C)C(=O)N[C@@H]([C@@H](C)O)C(=O)N(C)CC(=O)N1C [Compound P-108, Ac*-MePhe-MeAla-MePhe-MeLeu-Thr-MeGly-MeLeu-Ser(tBu)-Cys*-piperidine] ({CH2CO}-[NMeF][NMeA][NMeF][NMeL]T[Sar][NMeL]S(tBu)C-Piperidide; thioether N-9)	> 60 h	5.2 ul/min/mg Protein	72.3 µL/min/mg	–
CC(C)C[C@H]1C(=O)N[C@@H](COC(C)(C)C)C(=O)N[C@H](C(=O)N2CCCCC2)CSCC(=O)N(C)[C@@H](Cc2ccccc2)C(=O)N(C)[C@@H](C)C(=O)N[C@@H](Cc2ccccc2)C(=O)N(C)[C@@H](CC(C)C)C(=O)N[C@@H]([C@@H](C)O)C(=O)N(C)CC(=O)N1C [Compound P-110, Ac*-MePhe-MeAla-Phe-MeLeu-Thr-MeGly-MeLeu-Ser(tBu)-Cys*-piperidine] ({CH2CO}-[NMeF][NMeA]F[NMeL]T[Sar][NMeL]S(tBu)C-Piperidide; thioether N-9)	> 60 h	6.1 ul/min/mg Protein	163 µL/min/mg	–
CC[C@H](C)[C@H]1C(=O)N[C@H](C(=O)N2CCCCC2)CSCC(=O)N(C)[C@@H](C)C(=O)N[C@@H](Cc2ccccc2)C(=O)N(C)[C@@H](CC(C)C)C(=O)N[C@@H]([C@@H](C)O)C(=O)N(C)CC(=O)N(C)[C@@H](CC(C)C)C(=O)N[C@@H](COC(C)(C)C)C(=O)N1C [Compound P-111, Ac*-MeAla-Phe-MeLeu-Thr-MeGly-MeLeu-Ser(tBu)-MeIle-Cys*-piperidine] ({CH2CO}-[NMeA]F[NMeL]T[Sar][NMeL]S(tBu)[NMeI]C-Piperidide; thioether N-9)	> 60 h	0 ul/min/mg Protein	76.4 µL/min/mg	76.4 ul/min/mg Protein
CC[C@H](C)[C@H]1C(=O)N[C@H](C(=O)N2CCCCC2)CSCC(=O)N[C@@H](Cc2ccccc2)C(=O)N(C)[C@@H](CC(C)C)C(=O)N[C@@H]([C@@H](C)O)C(=O)N(C)CC(=O)N(C)[C@@H](CC(C)C)C(=O)N[C@@H](COC(C)(C)C)C(=O)N1C [Compound P-107, Ac*-Phe-MeLeu-Thr-MeGly-MeLeu-Ser(tBu)-MeIle-Cys*-piperidine] ({CH2CO}-F[NMeL]T[Sar][NMeL]S(tBu)[NMeI]C-Piperidide; thioether N-8)	> 60 h	10.1 ul/min/mg Protein	111 µL/min/mg	–
